In the first assay the test system is Rattus norvegicus. As to the kind of experiment: Gastroprotective activity in rat ethanol-induced damage model following intraperitoneal administration. The assay is classed as functional. On the set-up: concentration or dose not given beside the values.
Details: not given
`CCc1cc(=O)c2ccccc2o1`: the Protection is listed as 74%. For the compound `COc1cccc2c1C(=O)CC(c1ccccc1)O2` (configuration not stated), the Protection was determined as 32%. Compound `O=C1CC(c2ccccc2)Oc2ccccc21` (configuration not stated) [FLAVANONE] showed a Protection of 24%.

`COc1cccc2oc(C)cc(=O)c12` registered a Protection of 81%. With `COc1ccccc1C(=O)CC(=O)c1ccccc1`, the Protection stood at 19%. For `Cc1cc(=O)c2ccccc2o1`, the Protection was 76%. The same measure, in the same setting: with `CC(C)Oc1ccc2c(=O)c(-c3ccccc3)coc2c1` [IPRIFLAVONE] the figure was less than 10%.

`O=c1cc(-c2ccccc2)oc2ccccc12` [FLAVONE] came in with a Protection of 88%. On the same count and under the same terms, the result for `O=c1c(-c2ccccc2)coc2ccccc12` [ISOFLAVONE] reads less than 10%; that for `S=c1cc(-c2ccccc2)oc2ccccc12`, 58%.

In the case of `O=c1cc(-c2ccccc2)sc2ccccc12`, the Protection stood at 67%. Compound `Oc1cc(-c2ccccc2)nc2ccccc12` returned a Protection of 17%. As to `Nc1ccccc1C(=O)/C=C/c1ccccc1`, the Protection is 36%. Still for that read-out and setting: the result for `O=C(/C=C/c1ccccc1)c1ccccc1` [CHALCONE] reads 32%; that for `O=c1cc(-c2cccs2)oc2ccccc12`, 82%; that for `O=c1cc(-c2cccnc2)oc2ccccc12`, 97%.

The compound `Cn1c(-c2cc(=O)c3ccccc3o2)cc2ccccc21` showed a Protection of 74%.

Another assay relates to Rattus norvegicus. As to the kind of experiment: Effective dose gastroprotective activity in rat ethanol-induced damage model following intraperitoneal administration. Conditions: ip. The assay is classed as functional.
With `CCc1cc(=O)c2ccccc2o1`, the median effective dose (ED50) stood at 4.3 mg/kg.

The test system of a further assay is Rattus norvegicus. Briefly: Compound was tested for gastroprotective activity in rat ethanol-induced damage model following oral administration (0.1 mg/kg).
Details: not given
The assay is classed as functional.
The compound `CCCCC[C@H](O)/C=C/[C@H]1[C@H](O)CC(=O)[C@@H]1C/C=C\CCCC(=O)O` [DINOPROSTONE] returned a Protection of 64%. For `CN/C(=N\CCSCc1nc[nH]c1C)NC#N` [CIMETIDINE], the Protection is reported as 14%.

A further assay deals with Rattus norvegicus. As to the kind of experiment: Effective dose for gastroprotective activity in rat ethanol-induced damage model following intraperitoneal administration. The assay is classed as functional. Conditions: ip.
In the case of `Cc1cc(=O)c2ccccc2o1`, the 50% effective dose (ED50) turned out to be 5.4 mg/kg.

`O=c1cc(-c2ccccc2)oc2ccccc12` [FLAVONE] came in with an ED50 of 6.9 mg/kg.

For the origin of these results see ChEMBL document CHEMBL1149989, “Synthesis and biological evaluation of flavonoids and related compounds as gastroprotective agents” (1996).
